The results in this text go back to ChEMBL document CHEMBL1138296, “Synthesis and biological evaluation of alpha-halogenated bisphosphonate and phosphonocarboxylate analogues of risedronate” (J Med Chem, 2007).

Calls of active or inactive are those of the source. The calls are words filed in the database; no cut-off is given here. A value given as a limit tells only on which side of the number the result lay.

The nature of assay [1]: Reduction of viability of mouse […] cells after 48 hrs. It is filed as cell-based.
Assay [2] relates to J744. Briefly: Inhibition of RGGT mediated Rab11 prenylation in […] cells. It is filed as cell-based. Conditions: Mus musculus.
The nature of assay [3]: Inhibition of RGGT. Set-up: species or system Homo sapiens.
For assay [4], the target named is T1, Farnesyl pyrophosphate synthase (Homo sapiens, UniProt P14324).
T1 sequence (P14324 whole entry): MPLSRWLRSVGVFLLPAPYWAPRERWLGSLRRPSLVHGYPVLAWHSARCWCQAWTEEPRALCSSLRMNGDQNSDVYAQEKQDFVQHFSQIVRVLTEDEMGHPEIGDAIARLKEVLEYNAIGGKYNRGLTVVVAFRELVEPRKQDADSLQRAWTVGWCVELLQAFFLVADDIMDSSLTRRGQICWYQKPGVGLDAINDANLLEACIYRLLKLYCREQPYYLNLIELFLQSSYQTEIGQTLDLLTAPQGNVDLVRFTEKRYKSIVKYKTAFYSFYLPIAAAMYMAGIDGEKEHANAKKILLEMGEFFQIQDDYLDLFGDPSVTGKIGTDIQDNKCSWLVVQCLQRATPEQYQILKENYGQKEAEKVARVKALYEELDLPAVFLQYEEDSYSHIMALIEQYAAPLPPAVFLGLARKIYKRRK
Briefly: Inhibition of human cloned FPPS expressed in Escherichia col […].

Assay [5] can be described thus: Bone mineral affinity on hydroxyaptite assessed as retention time by chromatography. The class given is functional.
Assay [6] has as its system J744. Briefly: Inhibition of RGGT mediated Rap1A prenylation in […] cells. The class given is cell-based. The settings on record: Mus musculus.

As a reminder, the IC50 is the midpoint of a concentration-inhibition curve. Higher therefore signals weaker potency. Regarding `O=C(O)C(F)(Cc1cccnc1)P(=O)(O)O` (stereo not drawn), the IC50 was 1.8 µM in assay [1], 16.3 µM in assay [3] and above 600 µM in assay [4]. In assay [2], the MED is 31 µM. The outcome in assay [5] was inactive.
Turning to `O=P(O)(O)C(Cc1cccnc1)P(=O)(O)O`, the concentration for half-maximal inhibition (IC50) in assay [1] was found to be 212 µM; in assay [4] it was 0.0342 µM. The MED in assay [6] amounted to 50 µM. Further, in assay [5], the TIME came out at 0.0972 h.
Regarding `O=P(O)(O)C(Br)(Cc1cccnc1)P(=O)(O)O`, the concentration for half-maximal inhibition (IC50) in assay [1] is 673 µM; in assay [4], 0.34 µM. The same compound registered an MED in assay [6] of 400 µM. In assay [5], the TIME turned out to be 0.0955 h.
As for `O=C(O)C(Cl)(Cc1cccnc1)P(=O)(O)O` (stereo not drawn), the half-maximal inhibitory concentration (IC50) is 5 µM in assay [1], 16.4 µM in assay [3] and above 600 µM in assay [4]. The compound also registered an MED in assay [2] of 125 µM. For the same compound, the outcome in assay [5] was inactive.
In turn, `O=P(O)(O)C(O)(Cc1cccnc1)P(=O)(O)O` [RISEDRONIC ACID] displayed a half-inhibitory concentration (IC50) in assay [1] of 31 µM. Moreover, the MED in assay [6] came out at 12 µM. In addition, the TIME in assay [5] turned out to be 0.166 h.
Turning to `O=P(O)(O)C(Cl)(Cc1cccnc1)P(=O)(O)O`, the half-inhibitory concentration (IC50) in assay [1] is 679 µM; in assay [4], 0.0946 µM. The compound further came in with an MED in assay [6] of 400 µM. In assay [5], the TIME was found to be 0.101 h.
For `O=C(O)C(Cc1cccnc1)P(=O)(O)O` (stereo not drawn), the IC50 in assay [1] came to 2.6 µM; in assay [3] it was 35.3 µM. Besides, the MED in assay [2] came to 62 µM. Moreover, the outcome in assay [5] was inactive.
For `O=C(O)C(Br)(Cc1cccnc1)P(=O)(O)O` (stereo not drawn), the values for the IC50 in assay [1], in assay [3] and in assay [4] were 5.5 µM, 17.7 µM and above 60 µM, respectively. In addition, the MED in assay [2] came out at 125 µM. In assay [5], the outcome was inactive.
For `O=P(O)(O)C(F)(Cc1cccnc1)P(=O)(O)O`, the half-maximal inhibitory concentration (IC50) is 140 µM in assay [1] and 0.0164 µM in assay [4]. This compound also showed an MED in assay [6] of 100 µM. For the same compound, in assay [5], the TIME was determined as 0.0988 h.
Turning to `O=C(O)[C@@](O)(Cc1cccnc1)P(=O)(O)O`, the concentration for half-maximal inhibition (IC50) in assay [1] is 2.3 µM; in assay [3] it was 24.1 µM; in assay [4], 254 µM. The compound further came in with an MED in assay [2] of 62 µM. For the same compound, in assay [5], the TIME is 0.0767 h.
